Laboratory results from publication PMC9203275, “Lysosome lipid signalling from the periphery to neurons regulates longevity” (Nature Cell Biology, 2022).

Assays:
LBP-2 = target: T1, LBP-2 (Caenorhabditis elegans, UniProt Q20224); assay: mass spectrometry of fatty acids bound after incubation with C. elegans lipid extract; type: binding; settings: competition within C. elegans lipid extract
T1 sequence (Q20224 19-161): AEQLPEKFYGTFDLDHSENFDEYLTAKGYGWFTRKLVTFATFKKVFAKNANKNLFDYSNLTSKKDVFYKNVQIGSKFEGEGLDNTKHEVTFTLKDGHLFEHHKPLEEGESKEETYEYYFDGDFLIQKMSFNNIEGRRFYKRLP

LBP-3 = target: T2, LBP-3 (Caenorhabditis elegans, UniProt Q20222); assay: competitive fluorescence displacement of […],8-ANS; type: binding; settings: one-site Fit Ki; competition with 1,8-ANS probe
T2 sequence (Q20222 16-165): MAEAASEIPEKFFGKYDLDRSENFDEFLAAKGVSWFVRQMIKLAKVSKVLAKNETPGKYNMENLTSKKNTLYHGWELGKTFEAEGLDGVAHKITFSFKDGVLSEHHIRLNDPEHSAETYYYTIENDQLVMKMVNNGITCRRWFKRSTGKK

Compound	% occupancy among bound PUFAs (LBP-2) [%]	Kd (LBP-3) [µM]
CCCCC/C=C\C/C=C\C/C=C\CCCCCCC(=O)O [DGLA, dihomo-γ-linolenic acid]	1	11
CC/C=C\C/C=C\C/C=C\C/C=C\C/C=C\CCCC(=O)O [EPA, eicosapentaenoic acid]	6	4.76
